This is an account of results in ChEMBL document CHEMBL1201862, “PubChem BioAssay data set” (2004).

SMILES strings stand for the structures.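 1) Cells in 96-well plates. 2) Compound, 48 h, 5 concentrations. 3) Linear interpolation between surrounding doses. 4) Unreached endpoint = highest concentration. Abbreviation: GI50, concentration required for 50% inhibition of growth.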 Active and inactive are the calls of the source. No stated cut-off is given here; in the data, active = GI50 up to about 1.1 µM and inactive = higher. Where only a bound is given, the exact number is not on record here.

Holding throughout (test): NCI-60 cell line screen, 48 h
Assay [1] deals with MDA-MB-435.
The test system of assay [2] is UACC-257.
For assay [3], the system named is SK-MEL-5.
Assay [4] relates to UACC-62.
In assay [5] the test system is OVCAR-4.
For assay [6], the system named is KM12.
In assay [7] the test system is MOLT-4.
For assay [8], the system named is SF-295.
Assay [9] relates to SK-OV-3.
Assay [10] has as its system HOP-92.
The subject of assay [11] is T47D.
The subject of assay [12] is OVCAR-8.
Assay [13] concerns MDA-MB-231.
Assay [14] has as its system M14.
Assay [15] deals with EKVX.
Assay [16] concerns HL-60.
In assay [17] the test system is HOP-62.
In assay [18] the test system is OVCAR-3.
Assay [19] deals with A498.

With `Cc1ccc(O)c(C2=CC(c3cccc(Br)c3)SC(=N)N2)c1` (centres undefined), the GI50 in [1] is 18.7 µM (inactive); in assay [2], 20.1 µM (inactive); in [3] it was 17 µM (inactive); in assay [4] it was 17.1 µM (inactive); in assay [5], 28.9 µM (inactive); in assay [6] it was 27 µM (inactive). The GI50 was 18.9 µM (inactive) in assay [7]; 21.2 µM (inactive) in assay [8]; 28.8 µM (inactive) in [9]; 19 µM (inactive) in assay [10]; 26.5 µM (inactive) in assay [11]; 35.2 µM (inactive) in assay [12]. The GI50 in [13] was 25.8 µM (inactive); in assay [14], 24.3 µM (inactive); in [15], 21 µM (inactive); in assay [16], 29 µM (inactive); in assay [17], 21.6 µM (inactive); in [18] it was 39.5 µM (inactive).
As to `CN1CCN(c2ccc3nc(-c4cc(O)c5c(nc(CO)n5C)c4O)[nH]c3n2)CC1`, the GI50 in assay [1] is 18.7 µM (inactive); in assay [2] it was 34.7 µM (inactive); in [4], 11.6 µM (inactive); in assay [5], 19.5 µM (inactive); in [6] it was 54.2 µM (inactive); in assay [7], 17.6 µM (inactive). Further, the GI50 in assay [8] was > 100 µM (inactive); in [9] it was > 100 µM (inactive); in assay [10] it was > 100 µM (inactive); in [11], 18.7 µM (inactive); in assay [12], 28.6 µM (inactive); in [13], 22.4 µM (inactive). For the same compound, the GI50 in [14] is 34.7 µM (inactive); in assay [15] it was 22.9 µM (inactive); in assay [16], 16.4 µM (inactive); in assay [17] it was 52 µM (inactive); in [18] it was 26.1 µM (inactive).
On to `Cc1cccc(Nc2nc3ccccc3nc2NS(=O)(=O)c2ccccc2)c1`, for which the GI50 in [1] was 46.6 µM (inactive); in [2] it was 26.1 µM (inactive); in assay [3] it was 19.4 µM (inactive); in [4], 25.6 µM (inactive); in assay [5], 2.14 µM (inactive); in assay [6] it was 20.3 µM (inactive). In addition, the GI50 was 12.6 µM (inactive) in assay [7]; 14.5 µM (inactive) in assay [8]; 25.2 µM (inactive) in assay [9]; 11 µM (inactive) in [10]; 18.5 µM (inactive) in [11]; 29.3 µM (inactive) in assay [12]. Also, the GI50 in assay [13] was 39.5 µM (inactive); in [14] it was 38.3 µM (inactive); in [15] it was 30.5 µM (inactive); in assay [16], 13.8 µM (inactive); in assay [17], 27.5 µM (inactive); in [18], 19 µM (inactive).
As to `COc1cc([C@@H]2c3cc4c(cc3[C@@H](NCCNCCO)[C@H]3COC(=O)[C@H]23)OCO4)cc(OC)c1O`, the GI50 was 3.85 µM (inactive) in assay [19]; 9.44 µM (inactive) in [1]; 5.02 µM (inactive) in [2]; 0.659 µM (active) in assay [3]; 0.601 µM (active) in assay [4]; 14.4 µM (inactive) in [5]. For the same compound, the GI50 was 3.72 µM (inactive) in assay [6]; 0.0267 µM (active) in assay [7]; 2.33 µM (inactive) in assay [9]; 0.841 µM (active) in assay [11]; 1.81 µM (inactive) in assay [12]; 3.69 µM (inactive) in assay [13]. Moreover, the GI50 in assay [14] is 3.48 µM (inactive); in [17] it was 1.2 µM (inactive).
`c1cnn(C23C4C5C6C4C2C6C53)c1` (centres undefined): the GI50 in assay [19], in assay [1], in assay [2], in [3], in [6] and in assay [7] was > 100 µM (inactive) in each case. In addition, the GI50 in [8], in assay [9], in assay [11], in assay [12], in assay [13] and in assay [15] was > 100 µM (inactive) throughout. Moreover, the GI50 in [16] and in assay [17] was > 100 µM (inactive) each time.
`O=c1[nH][nH]c(=O)n1Cc1cccc(Cn2c(=O)[nH][nH]c2=O)c1`: the GI50 in [19], in [1], in assay [2], in assay [3], in assay [4] and in assay [5] was > 100 µM (inactive) throughout. The GI50 in assay [6], in [7], in assay [9], in assay [11], in assay [12] and in [13] was > 100 µM (inactive) each time. Moreover, the GI50 in [14], in assay [15], in assay [16] and in [18] was > 100 µM (inactive) each time.
As to `NCCCN(CCCN)CCc1cn(C(=O)c2ccccc2)cn1`, the GI50 is 5.73 µM (inactive) in assay [1]; 9.2 µM (inactive) in assay [2]; 7 µM (inactive) in [3]; 8.57 µM (inactive) in assay [4]; 4.93 µM (inactive) in assay [5]; 7.82 µM (inactive) in assay [6]. For the same compound, the GI50 in assay [7] is 2.19 µM (inactive); in assay [8], 12.7 µM (inactive); in assay [9], 11.2 µM (inactive); in assay [10], 4.05 µM (inactive); in [11], 4.85 µM (inactive); in [12], 16.9 µM (inactive). Moreover, the GI50 in assay [13] is 14.2 µM (inactive); in assay [14], 4.94 µM (inactive); in assay [15], 7.21 µM (inactive); in assay [16], 3.84 µM (inactive); in [17], 7.74 µM (inactive); in assay [18], 2.69 µM (inactive).
For `CCOC(=O)CCC(C(=O)OCC)n1nnc2ccc(Nc3c(C)[n+]([O-])c4cc(Cl)ccc4[n+]3[O-])cc21` (centres undefined), the GI50 is 19.2 µM (inactive) in assay [1]; 16.3 µM (inactive) in [2]; 17.4 µM (inactive) in assay [4]; 18.3 µM (inactive) in assay [5]; 22.2 µM (inactive) in assay [6]; 38.2 µM (inactive) in [7]. Moreover, the GI50 in assay [8] was 68.1 µM (inactive); in [9], 99.5 µM (inactive); in assay [10], 16 µM (inactive); in [11] it was 19.5 µM (inactive); in assay [12], 21.5 µM (inactive); in [14] it was 19 µM (inactive). The GI50 is 27.7 µM (inactive) in assay [15], 29.9 µM (inactive) in [16], 31.9 µM (inactive) in assay [17] and 17.7 µM (inactive) in assay [18].
In the case of `Cc1nc(C)c(C(=O)NNC(N)=S)cc1C(=O)NNC(N)=S`, the GI50 in [1], in assay [2], in assay [3], in [4], in assay [5] and in assay [6] was > 100 µM (inactive) throughout. The GI50 in [7], in [8], in assay [9], in [10], in [11] and in assay [12] was > 100 µM (inactive) each time. Further, the GI50 in [13], in assay [14], in assay [15], in assay [16], in assay [17] and in [18] was > 100 µM (inactive) throughout.
